Reference: US7632811B2, “Analogs of parathyroid hormone” (Societe de Conseils de Recherches et D'Applications …, priority 1995, dated 2009)
pKd: −log10 of the molar value. Non-standard residues stand in square brackets, D forms with d. Residues, ends and D or L forms follow the SMILES beside them. Cha = N[C@@H](CC1CCCCC1)C(=O)O; Ac6c = NC1(C(=O)O)CCCCC1; Nle = CCCC[C@H](N)C(=O)O; Aib = CC(C)(N)C(=O)O

The compounds below were run against T1, PTH receptor present on SaOS-2 (human osteosarcoma cells) (Homo sapiens, UniProt Q03431) (assay: Binding to PTH receptor on SaOS-2 cells (competition with mono-125I-[Nle8,18,Tyr34(3-125I)]bPTH(1-34)NH2)). Settings: Table I, 2 hrs at room temperature, read-out: Kd (half maximal inhibition of binding of mono-125I-[Nle8,18, Tyr34(3-125I)]bPTH(1-34)NH2).
T1 construct: host or cells: SaOS-2 human osteosarcoma cells (intact, confluent monolayers)
T1 sequence (Q03431 27-593): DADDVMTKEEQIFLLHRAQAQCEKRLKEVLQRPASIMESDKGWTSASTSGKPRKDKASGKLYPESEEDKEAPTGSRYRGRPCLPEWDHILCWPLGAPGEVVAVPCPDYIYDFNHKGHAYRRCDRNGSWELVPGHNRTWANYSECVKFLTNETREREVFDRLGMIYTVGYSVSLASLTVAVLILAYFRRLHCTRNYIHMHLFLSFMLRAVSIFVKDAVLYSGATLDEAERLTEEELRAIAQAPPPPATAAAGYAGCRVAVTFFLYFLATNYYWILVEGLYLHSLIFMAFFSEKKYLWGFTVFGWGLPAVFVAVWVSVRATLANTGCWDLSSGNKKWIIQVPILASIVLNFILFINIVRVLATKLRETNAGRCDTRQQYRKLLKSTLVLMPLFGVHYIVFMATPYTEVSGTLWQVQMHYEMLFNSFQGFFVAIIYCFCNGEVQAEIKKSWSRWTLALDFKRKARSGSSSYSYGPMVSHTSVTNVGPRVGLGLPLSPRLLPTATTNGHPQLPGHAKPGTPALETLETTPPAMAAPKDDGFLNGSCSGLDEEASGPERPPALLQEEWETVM
Protocol: A. Binding to PTH Receptor
The peptides of the invention were tested for their ability to bind to the PTH receptor present on SaOS-2 (human osteosarcoma cells). SaOS-2 cells (American Type Culture Collection, Rockville, Md.; ATCC #HTB 85) were maintained in RPMI 1640 medium (Sigma, St. Louis, Mo.) supplemented with 10% fetal bovine serum (FBS) and 2 mM glutamine at 37EC in a humidified atmosphere of 5% CO2 in air. The medium was changed every three or four days, and the cells were subcultured every week by trypsinization.
SaOS-2 cells were maintained for four days until they had reached confluence. The medium was replaced with 5% FBS in RPMI 1640 medium and incubated for 2 hrs at room temperature with 10×10^4 cpm mono-^125I-[Nle^8,18, Tyr^34(3-^125I)]bPTH(1-34)NH2 in the presence of a competing peptides of the invention at various concentrations between 10^−11 M to 10^−4 M. The cells were washed four times with ice-cold PBS and lysed with 0.1 M NaOH, and the radioactivity associated with the cells was counted in a scintillation counter. Synthesis of mono-^125I-[Nle^8,18, Tyr^34(3-^125I)]bPTH(1-34)NH2 was carried out as described in Goldman, M. E., et al., Endocrinol., 123:1468 (1988).
The binding assay was conducted with various peptides of the invention, and the Kd value (half maximal inhibition of binding of mono-^125I-[Nle^8,18, Tyr^34(3-^125I)]bPTH(1-34)NH2) for each peptide was calculated.

| Structure (SMILES) | pKd |
| --- | --- |
| CCCC[C@H](NC(=O)[C@H](CO)NC(=O)[C@H](CC(N)=O)NC(=O)[C@H](CC(C)C)NC(=O)[C@H](Cc1c[nH]cn1)NC(=O)[C@H](CCCCN)NC(=O)CNC(=O)[C@H](CC1CCCCC1)NC(=O)[C@H](CC(N)=O)NC(=O)[C@H](Cc1c[nH]cn1)NC(=O)[C@H](CCCC)NC(=O)[C@H](CC1CCCCC1)NC(=O)[C@H](CCC(N)=O)NC(=O)[C@@H](NC(=O)[C@H](CCC(=O)O)NC(=O)[C@H](CO)NC(=O)[C@@H](NC(=O)[C@@H](N)CO)C(C)C)[C@@H](C)CC)C(=O)N[C@@H](CCC(=O)O)C(=O)N[C@@H](CCCNC(=N)N)C(=O)N[C@H](C(=O)N[C@@H](CCC(=O)O)C(=O)N[C@@H](Cc1c[nH]c2ccccc12)C(=O)N[C@@H](CC(C)C)C(=O)N[C@@H](CCCNC(=N)N)C(=O)N[C@@H](CCCCN)C(=O)N[C@@H](CCCCN)C(=O)N[C@@H](CC(C)C)C(=O)N[C@@H](CCC(N)=O)C(=O)N[C@@H](CC(=O)O)C(=O)N[C@H](C(=O)N[C@@H](Cc1c[nH]cn1)C(=O)N[C@@H](CC(N)=O)C(=O)N[C@@H](Cc1ccc(O)cc1)C(N)=O)C(C)C)C(C)C [[Cha^7,11, Nle^8,18, Tyr^34]hPTH(1-34)NH2] (H-SVSEIQ[Cha][Nle]HN[Cha]GKHLNS[Nle]ERVEWLRKKLQDVHNY-NH2) | 8.22 |
| CCCC[C@H](NC(=O)[C@H](CC1CCCCC1)NC(=O)[C@H](CCC(N)=O)NC(=O)[C@@H](NC(=O)[C@H](CCC(=O)O)NC(=O)[C@H](CO)NC(=O)[C@@H](NC(=O)[C@@H](N)CO)C(C)C)[C@@H](C)CC)C(=O)N[C@@H](Cc1c[nH]cn1)C(=O)N[C@@H](CC(N)=O)C(=O)N[C@@H](CC1CCCCC1)C(=O)NCC(=O)N[C@@H](CCCCN)C(=O)N[C@@H](Cc1c[nH]cn1)C(=O)N[C@@H](CC(C)C)C(=O)NC(C)(C)C(=O)N[C@@H](CO)C(=O)N[C@@H](CCCC)C(=O)NC(C)(C)C(=O)N[C@@H](CCCNC(=N)N)C(=O)N[C@H](C(=O)N[C@@H](CCC(=O)O)C(=O)N[C@@H](Cc1c[nH]c2ccccc12)C(=O)N[C@@H](CC(C)C)C(=O)N[C@@H](CCCNC(=N)N)C(=O)N[C@@H](CCCCN)C(=O)N[C@@H](CCCCN)C(=O)N[C@@H](CC(C)C)C(=O)N[C@@H](CCC(N)=O)C(=O)N[C@@H](CC(=O)O)C(=O)N[C@H](C(=O)N[C@@H](Cc1c[nH]cn1)C(=O)N[C@@H](CC(N)=O)C(=O)N[C@@H](Cc1ccc(O)cc1)C(N)=O)C(C)C)C(C)C [[Cha^7,11, Nle^8,18, Aib^16,19, Tyr^34]hPTH (1-34)NH2] (H-SVSEIQ[Cha][Nle]HN[Cha]GKHL[Aib]S[Nle][Aib]RVEWLRKKLQDVHNY-NH2) | 8.30 |
| CC[C@H](C)[C@H](NC(=O)[C@H](CCC(=O)O)NC(=O)[C@H](CO)NC(=O)[C@@H](NC(=O)[C@@H](N)CO)C(C)C)C(=O)N[C@@H](CCC(N)=O)C(=O)N[C@@H](CC(C)C)C(=O)N[C@@H](CCSC)C(=O)N[C@@H](Cc1c[nH]cn1)C(=O)N[C@@H](CC(N)=O)C(=O)N[C@@H](CC(C)C)C(=O)NCC(=O)N[C@@H](CCCCN)C(=O)N[C@@H](Cc1c[nH]cn1)C(=O)N[C@@H](CC1CCCCC1)C(=O)N[C@@H](CC(N)=O)C(=O)N[C@@H](CO)C(=O)N[C@@H](CCSC)C(=O)N[C@@H](CCC(=O)O)C(=O)N[C@@H](CCCNC(=N)N)C(=O)N[C@H](C(=O)N[C@@H](CCC(=O)O)C(=O)N[C@@H](Cc1c[nH]c2ccccc12)C(=O)N[C@@H](CC(C)C)C(=O)N[C@@H](CCCNC(=N)N)C(=O)N[C@@H](CCCCN)C(=O)N[C@@H](CCCCN)C(=O)N[C@@H](CC(C)C)C(=O)N[C@@H](CCC(N)=O)C(=O)N[C@@H](CC(=O)O)C(=O)N[C@H](C(=O)N[C@@H](Cc1c[nH]cn1)C(=O)N[C@@H](CC(N)=O)C(=O)N[C@@H](Cc1ccccc1)C(N)=O)C(C)C)C(C)C [[Cha^15]hPTH(1-34)NH2] (H-SVSEIQLMHNLGKH[Cha]NSMERVEWLRKKLQDVHNF-NH2) | 8.30 |

Further lines, results first:

| pKd | Structure (SMILES) |
| --- | --- |
| 8.40 | CC[C@H](C)[C@H](NC(=O)[C@H](CCC(=O)O)NC(=O)[C@H](CO)NC(=O)[C@@H](NC(=O)[C@@H](N)CO)C(C)C)C(=O)N[C@@H](CCC(N)=O)C(=O)N[C@@H](CC1CCCCC1)C(=O)N[C@@H](CCSC)C(=O)N[C@@H](Cc1c[nH]cn1)C(=O)N[C@@H](CC(N)=O)C(=O)N[C@@H](CC1CCCCC1)C(=O)NCC(=O)N[C@@H](CCCCN)C(=O)N[C@@H](Cc1c[nH]cn1)C(=O)N[C@@H](CC(C)C)C(=O)NC(C)(C)C(=O)N[C@@H](CO)C(=O)N[C@@H](CCSC)C(=O)N[C@@H](CCC(=O)O)C(=O)N[C@@H](CCCNC(=N)N)C(=O)N[C@H](C(=O)N[C@@H](CCC(=O)O)C(=O)N[C@@H](Cc1c[nH]c2ccccc12)C(=O)N[C@@H](CC(C)C)C(=O)N[C@@H](CCCNC(=N)N)C(=O)N[C@@H](CCCCN)C(=O)N[C@@H](CCCCN)C(=O)N[C@@H](CC(C)C)C(=O)N[C@@H](CCC(N)=O)C(=O)N[C@@H](CC(=O)O)C(=O)N[C@H](C(=O)N[C@@H](Cc1c[nH]cn1)C(=O)N[C@@H](CC(N)=O)C(=O)N[C@@H](Cc1ccccc1)C(N)=O)C(C)C)C(C)C [[Cha^7,11, Aib^16]hPTH(1-34)NH2] (H-SVSEIQ[Cha]MHN[Cha]GKHL[Aib]SMERVEWLRKKLQDVHNF-NH2) |
| 8.40 | CC[C@H](C)[C@H](NC(=O)[C@H](CCC(=O)O)NC(=O)[C@H](CO)NC(=O)[C@@H](NC(=O)[C@@H](N)CO)C(C)C)C(=O)N[C@@H](CCC(N)=O)C(=O)N[C@@H](CC1CCCCC1)C(=O)N[C@@H](CCSC)C(=O)N[C@@H](Cc1c[nH]cn1)C(=O)N[C@@H](CC(N)=O)C(=O)N[C@@H](CC1CCCCC1)C(=O)NCC(=O)N[C@@H](CCCCN)C(=O)N[C@@H](Cc1c[nH]cn1)C(=O)N[C@@H](CC(C)C)C(=O)N[C@@H](CC(N)=O)C(=O)N[C@@H](CO)C(=O)N[C@@H](CCSC)C(=O)NC(C)(C)C(=O)N[C@@H](CCCNC(=N)N)C(=O)N[C@H](C(=O)N[C@@H](CCC(=O)O)C(=O)N[C@@H](Cc1c[nH]c2ccccc12)C(=O)N[C@@H](CC(C)C)C(=O)N[C@@H](CCCNC(=N)N)C(=O)N[C@@H](CCCCN)C(=O)N[C@@H](CCCCN)C(=O)N[C@@H](CC(C)C)C(=O)N[C@@H](CCC(N)=O)C(=O)N[C@@H](CCCCN)C(=O)N[C@H](C(=O)N[C@@H](Cc1c[nH]cn1)C(=O)N[C@@H](CC(N)=O)C(=O)N[C@@H](Cc1ccccc1)C(N)=O)C(C)C)C(C)C [[Cha^7,11, Aib^19, Lys^30]hPTH(1-34)NH2] (H-SVSEIQ[Cha]MHN[Cha]GKHLNSM[Aib]RVEWLRKKLQKVHNF-NH2) |

Same assay, conditions: Table II, 2 hrs at room temperature, read-out: Kd (half maximal inhibition of binding of mono-125I-[Nle8,18, Tyr34(3-125I)]bPTH(1-34)NH2)

| pKd | Structure (SMILES) |
| --- | --- |
| 7.15 | CC[C@H](C)[C@H](NC(=O)[C@H](CO)NC(=O)[C@H](CCCCN)NC(=O)CNC(=O)[C@H](CCCCN)NC(=O)[C@H](CC(=O)O)NC(=O)[C@H](Cc1c[nH]cn1)NC(=O)[C@H](CC(C)C)NC(=O)[C@H](CC(C)C)NC(=O)[C@H](CCC(N)=O)NC(=O)[C@H](Cc1c[nH]cn1)NC(=O)[C@H](CCC(=O)O)NC(=O)[C@H](CO)NC(=O)[C@@H](NC(=O)[C@H](C)N)C(C)C)C(=O)N[C@@H](CCC(N)=O)C(=O)N[C@@H](CC(=O)O)C(=O)N[C@@H](CC(C)C)C(=O)N[C@@H](CCCNC(=N)N)C(=O)N[C@@H](CCCNC(=N)N)C(=O)N[C@@H](CCCNC(=N)N)C(=O)N[C@@H](CCC(=O)O)C(=O)NC1(C(=O)N[C@@H](CC(C)C)C(=O)N[C@@H](CCC(=O)O)C(=O)N[C@@H](CCCCN)C(=O)N[C@@H](CC(C)C)C(=O)N[C@@H](CC(C)C)C(=O)NC(C)(C)C(=O)N[C@@H](CCCCN)C(=O)N[C@@H](CC(C)C)C(=O)N[C@@H](Cc2c[nH]cn2)C(=O)N[C@H](C(=O)N[C@@H](C)C(N)=O)[C@@H](C)O)CCCCC1 [[Glu^22,25, Ahc^23, Lys^26,30, Leu^28,31, Aib^29]hPTHrP(1-34)NH2] (H-AVSEHQLLHDKGKSIQDLRRRE[Ac6c]LEKLL[Aib]KLHTA-NH2; N-terminus assumed) |
